From paper PMC5820653, “Detection of a Peptide Biomarker by Engineered Yeast Receptors” (ACS Synthetic Biology, 2018)
Ends that are not written are not given here.

Legend:
[1] = target: T1, Ste2p mutant receptor Cys1H4 (M54I) (Saccharomyces cerevisiae, UniProt D6VTK4, M54I); experiment: cell-based; type: cell-based
T1 construct: expressed in transfected cells; host or cells: S. cerevisiae yJB013 (ste2-deleted reporter strain), p416GPD plasmid
Protocol: (§1) Yeast were grown overnight at 30 °C and 225 rpm in 250 mL Erlenmeyer flasks and then diluted to an OD600 = 0.1 in the appropriate medium, typically CSM-Ura or SDCAA-Ura, or commercially sourced pooled human urine. Immediately after dilution, the peptide ligand was added. The culture was incubated for 2.5 h at 30 °C with 225 rpm shaking. Cells were centrifuged at 2000g for 5 min and supernatant was removed. Cells were resuspended in 1x PBS in preparation for flow cytometry.
(§2) Analytical flow cytometry was performed with the BD LSR II (BD Biosciences, San Jose, USA); yEGFP was read on the Alexa-Flour 488 channel, and mKate was read on the PE-Texas Red channel. Receptor output was measured by dividing the mean GFP fluorescence by the mean RFP fluorescence for a population. EC50 values were calculated by fitting the receptor output to a four-parameter logistic curve, and determining which ligand concentration produced an output equivalent to half of the receptor’s maximum output.
(§3) The dose response curves were modeled to fit the following four-parameter logistic curve: [drawing 2] where a is the minimum value, b is the maximum value, c is the EC50, and d is the hill coefficient. The fluorescent receptor output, y, to a given concentration x of ligand, was determined by the following equation: [drawing 3] where GFP is downstream of the receptor pathway and mKate is constitutively expressed (see Strain and Plasmid Construction, Methods Section).
(§4) Data were fit to the Michaelis–Menten equation: [drawing 4] where the fluorescent receptor output, y, to a given concentration x of ligand, was determined by the following equation: [drawing 5] where GFP is downstream of the receptor pathway and mKate is constitutively expressed (see Strain and Plasmid Construction, Methods Section).

[2] = target: T2, Ste2p mutant receptor Cys1H5 (M54I, C59S) (Saccharomyces cerevisiae, UniProt D6VTK4, C59S/M54I); experiment: cell-based; type: cell-based
T2 construct: expressed in transfected cells; host or cells: S. cerevisiae yJB013 (ste2-deleted reporter strain), p416GPD plasmid
T2 sequence (D6VTK4 whole entry M54I/C59S): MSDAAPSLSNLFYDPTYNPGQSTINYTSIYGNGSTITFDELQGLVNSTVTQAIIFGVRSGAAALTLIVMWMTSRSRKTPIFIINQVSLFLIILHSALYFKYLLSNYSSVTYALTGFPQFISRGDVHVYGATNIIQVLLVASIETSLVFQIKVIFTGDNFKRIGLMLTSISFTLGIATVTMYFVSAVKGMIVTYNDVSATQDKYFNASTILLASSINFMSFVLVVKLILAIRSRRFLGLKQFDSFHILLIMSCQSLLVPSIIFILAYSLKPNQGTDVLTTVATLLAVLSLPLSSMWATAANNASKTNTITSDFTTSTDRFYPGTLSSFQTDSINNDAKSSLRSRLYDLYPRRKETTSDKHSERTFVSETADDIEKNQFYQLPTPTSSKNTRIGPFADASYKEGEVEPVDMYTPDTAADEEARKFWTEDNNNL
Protocol: as §1, §2, §3, §4

[3] = target: T3, Ste2p mutant receptor Cys2K2 (Saccharomyces cerevisiae, UniProt D6VTK4, M218K/M54I/Q272Y); experiment: cell-based
T3 construct: expressed in transfected cells; host or cells: S. cerevisiae yJB013 (ste2-deleted reporter strain), p416GPD plasmid
T3 sequence (D6VTK4 whole entry M54I/M218K/Q272Y): as the sequence (D6VTK4 whole entry M54I/C59S) above, with S59C, M218K, Q272Y counted along it
Protocol: as §1, §2, §3, §4

[4] = target: T4, Ste2p mutant receptor Cys2K3 (Saccharomyces cerevisiae, UniProt D6VTK4, K225T/M218T/M54I/N158Y/S356T); experiment: cell-based
T4 construct: expressed in transfected cells; host or cells: S. cerevisiae yJB013 (ste2-deleted reporter strain), p416GPD plasmid
T4 sequence (D6VTK4 whole entry M54I/N158Y/M218T/K225T/S356T): as the sequence (D6VTK4 whole entry M54I/C59S) above, with S59C, N158Y, M218T, K225T, S356T counted along it
Protocol: as §1, §2, §3, §4

[5] = target: T5, Ste2p mutant receptor Cys5R7 (Saccharomyces cerevisiae, UniProt D6VTK4, D3N/K225T/L228F/M218T/M54I/N158Y); experiment: cell-based
T5 construct: expressed in transfected cells; host or cells: S. cerevisiae yJB013 (ste2-deleted reporter strain), p416GPD plasmid
T5 sequence (D6VTK4 other isoform, or with tags, fused parts or gaps D3N/M54I/N158Y/M218T/K225T/L228F): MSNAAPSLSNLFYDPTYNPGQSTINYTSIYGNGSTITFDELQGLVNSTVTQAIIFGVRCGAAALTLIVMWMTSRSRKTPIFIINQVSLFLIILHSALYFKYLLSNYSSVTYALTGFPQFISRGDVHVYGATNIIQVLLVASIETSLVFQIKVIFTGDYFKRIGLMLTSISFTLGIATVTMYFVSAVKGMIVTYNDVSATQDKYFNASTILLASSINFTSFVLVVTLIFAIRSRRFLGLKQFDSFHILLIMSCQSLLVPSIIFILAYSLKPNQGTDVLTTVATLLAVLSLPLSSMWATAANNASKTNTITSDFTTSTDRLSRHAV
Protocol: as §1, §2, §3, §4

[6] = target: T6, Ste2p mutant receptor Cys5R2 (Saccharomyces cerevisiae, UniProt D6VTK4, F55L/K225T/M218T/M54I/N158Y/R74K/Y26F); experiment: cell-based
T6 construct: expressed in transfected cells; host or cells: S. cerevisiae yJB013 (ste2-deleted reporter strain), p416GPD plasmid
T6 sequence (D6VTK4 1-319 Y26F/M54I/F55L/R74K/N158Y/M218T/K225T): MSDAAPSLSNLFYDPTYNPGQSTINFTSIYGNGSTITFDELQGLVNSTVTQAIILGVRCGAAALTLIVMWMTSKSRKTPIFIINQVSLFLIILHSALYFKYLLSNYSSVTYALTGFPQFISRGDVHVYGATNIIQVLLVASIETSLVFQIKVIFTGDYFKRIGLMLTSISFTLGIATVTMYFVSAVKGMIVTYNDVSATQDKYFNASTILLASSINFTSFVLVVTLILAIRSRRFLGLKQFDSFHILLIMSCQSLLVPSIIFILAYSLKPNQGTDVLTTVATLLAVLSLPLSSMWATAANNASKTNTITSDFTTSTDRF
Protocol: as §1, §2, §3, §4

[7] = target: T7, Ste2p mutant receptor Cys4L3 (Saccharomyces cerevisiae, UniProt D6VTK4, K225T/M218T/M54I/N158F/R74K/T167R/Y26F); experiment: cell-based
T7 construct: expressed in transfected cells; host or cells: S. cerevisiae yJB013 (ste2-deleted reporter strain), p416GPD plasmid
T7 sequence (D6VTK4 1-319 Y26F/M54I/R74K/N158F/T167R/M218T/K225T): as the sequence (D6VTK4 1-319 Y26F/M54I/F55L/R74K/N158Y/M218T/K225T) above, with L55F, Y158F, T167R counted along it
Protocol: as §1, §2, §3, §4

Ste2p (wild type) = target: T8, Ste2p (wild type) (Saccharomyces cerevisiae, UniProt D6VTK4); experiment: Yeast GFP/RFP reporter response of native receptor Ste2p to peptide ligand (flow cytometry); type: cell-based
T8 construct: expressed in transfected cells; host or cells: S. cerevisiae YJB015 (MPY578t5 ste2::LEU2, fus1::yeGFP, TRP1::mKate) carrying plasmid pJB036
T8 sequence (D6VTK4 1-431): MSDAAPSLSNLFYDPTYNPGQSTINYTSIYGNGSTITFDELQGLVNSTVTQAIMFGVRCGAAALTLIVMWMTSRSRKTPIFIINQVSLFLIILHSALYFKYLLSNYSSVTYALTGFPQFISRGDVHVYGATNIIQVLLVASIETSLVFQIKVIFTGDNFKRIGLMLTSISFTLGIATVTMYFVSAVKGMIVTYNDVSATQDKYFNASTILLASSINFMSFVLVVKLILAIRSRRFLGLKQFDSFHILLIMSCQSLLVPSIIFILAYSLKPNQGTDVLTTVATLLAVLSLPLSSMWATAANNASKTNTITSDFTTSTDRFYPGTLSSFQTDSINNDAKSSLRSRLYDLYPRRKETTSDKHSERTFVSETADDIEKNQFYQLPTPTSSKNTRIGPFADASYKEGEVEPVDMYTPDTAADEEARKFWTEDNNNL
Protocol: as §1
as §2, with “output. […]” for “output.”
as §4

[8] = test system: Round 3 Ste2p mutant receptors; experiment: Counter-sorting for specificity: round 3 Ste2p mutants evolved for Variant 56; type: cell-based, Saccharomyces cerevisiae; conditions: library sorted with 100 nM Variant 56, counter-sorted against 100 nM α-factor; Supplementary Figure 1
Protocol: Specificity can be evolved
Supplementary Figure 1- Receptors can be counter-sorted against alpha-factor to increase specificity towards the target ligand- Variant […]
Variant 56 (sequence: […]), which contains a single-amino acid substitution compared to α-factor. In round 1, error prone PCR was performed on Ste2p to create a library of mutant receptors that were subjected to sorting with 100 nM Variant 56. The best mutant isolated from this sort was re-mutagenized to create a new library. The new library was sorted in round 2 with 100 nM Variant 56, and did show an improvement in detecting Variant 56 (panel a). In round 3, the sorted library from round 2 was screened […]
(also on this page, place not known: 0 1 2 3 4 Ste2p 1 2 Fold Increase Over Inac ve Receptor (GFP/RFP) Var. 56 0 1 2 3 4 Ste2p 1 2 3* Fold Increase Over Inac ve Receptor (GFP/RFP) α-factor 0.0 0.2 0.4 0.6 0.8 1.0 Ste2p 1 2 3* Rela ve Ac va on (Var. 56/α-factor) Rounds of Mutagenesis & Screening (a) (c) (b)) […]
(1 picture or pasted object on this page, not shown here)

[9] = target: T6, Ste2p mutant receptor Cys5R2; experiment: Receptor Cys5R2 response in trypsinized pooled human urine; type: cell-based; conditions: 500 μM ligand; pooled human urine digested with trypsin (50% Tryp-LE, 37 °C overnight, boiled); n = 3
Protocol: as §1, §2
(§5) When trypsinized urine was used as the sample matrix, urine was mixed with Tryp-LE Express (Life Technologies, Grand Island, USA) to a final concentration of 50%. Mixtures were incubated at 37 °C overnight. Trypsin was inactivated by boiling the samples at 99 °C for 10 min. Samples were stored at −80 °C until assayed.

[10] = target: T9, Ste2p mutant receptor Cys5R9 (Saccharomyces cerevisiae, UniProt D6VTK4, K225T/L228F/M218T/M54I/N158F/R74K/S121R/T167R/Y26F); experiment: Receptor Cys5R9 response in trypsinized pooled human urine; type: cell-based; conditions: 500 μM ligand; pooled human urine digested with trypsin (50% Tryp-LE, 37 °C overnight, boiled); n = 3
T9 construct: expressed in transfected cells; host or cells: S. cerevisiae yJB013 (ste2-deleted reporter strain), p416GPD plasmid
T9 sequence (D6VTK4 1-319 Y26F/M54I/R74K/S121R/N158F/T167R/M218T/K225T/L228F): as the sequence (D6VTK4 1-319 Y26F/M54I/F55L/R74K/N158Y/M218T/K225T) above, with L55F, S121R, Y158F, T167R, L228F counted along it
Protocol: as §1, §2, §5

[11] = target: T9, Ste2p mutant receptor Cys5R9; experiment: cell-based
Protocol: as §1, §2, §3, §4

[12] = target: T5, Ste2p mutant receptor Cys5R7; experiment: Receptor Cys5R7 response in trypsinized pooled human urine; type: cell-based; conditions: 500 μM ligand; pooled human urine digested with trypsin (50% Tryp-LE, 37 °C overnight, boiled); n = 3
Protocol: as §1, §2, §5

[13] = target: T7, Ste2p mutant receptor Cys4L3; experiment: Receptor Cys4L3 response in trypsinized pooled human urine; type: cell-based; conditions: 500 μM ligand; pooled human urine digested with trypsin (50% Tryp-LE, 37 °C overnight, boiled); n = 3
Protocol: as §1, §2, §5

T1 sequence (D6VTK4 whole entry M54I): as the sequence (D6VTK4 whole entry M54I/C59S) above, with S59C counted along it

Molecule	EC50 [1] [nM]	EC50 [2] [nM]	EC50 [3] [nM]	EC50 [4] [nM]	EC50 [5] [nM]	EC50 [6] [nM]	EC50 [7] [nM]	other results
CSCC[C@H](NC(=O)[C@@H]1CCCN1C(=O)[C@H](CCC(N)=O)NC(=O)CNC(=O)[C@@H]1CCCN1C(=O)[C@H](CCCCN)NC(=O)[C@H](CC(C)C)NC(=O)[C@H](CCC(N)=O)NC(=O)[C@H](CC(C)C)NC(=O)[C@H](Cc1c[nH]c2ccccc12)NC(=O)[C@H](Cc1c[nH]cn1)NC(=O)[C@@H](N)Cc1c[nH]c2ccccc12)C(=O)N[C@@H](Cc1ccc(O)cc1)C(N)=O [α-factor amidated, reference compound]	50.1	58.9	70.8	58.9	6.31	9.12	6.76	EC50 (Ste2p (wild type); log10 of EC50 in M ± error, 4-parameter logistic fit of GFP/RFP output, 2.5 h, 30 °C, flow cytometry, Supplementary Table 1): 229 nM
WHYLQLKPGQPMY [Variant 56, α-factor variant with a single-amino acid substitution]								Activation of round 3 mutants (fold increase GFP/RFP; relative activation Var. 56/α-factor) [8]: preferentially activated
ALDFAVGEYNK-NH2 [Cys7 amidated, C-terminally amidated cystatin C tryptic peptide Cys7]								Detection of ligand in pooled human urine [9]: able to detect; Ligand concentration at which the receptor responds (sensitivity) ([1]; Supplementary Figure 3C legend): 1 mM; Ligand concentration at which the receptor responds (sensitivity) ([2]; Supplementary Figure 3C legend): 1 mM; Detection of ligand in pooled human urine [10]: able to detect; Ligand concentration at which the receptor responds (sensitivity) [5]: 50 µM; Improvement in sensitivity ([5]; receptor Cys5R7 versus Ste2p, same ligand): 20 fold; Ligand concentration at which the receptor responds (sensitivity) [11]: 500 µM; Ligand concentration at which the receptor responds (sensitivity) [6]: 100 µM; Ligand concentration at which the receptor responds (sensitivity) ([7]; Cys4 value with a new stock of Cys4 peptide): 100 µM; Detection of ligand in pooled human urine [12]: able to detect; Ligand concentration at which the receptor responds (sensitivity) (Ste2p (wild type); as stated in text / figure legend): 1 mM; Detection of ligand in pooled human urine [13]: able to detect
HALALKPGEPMY [Cys1]	141	129						
ALALKPGEPMY [Cys2]			316	117				
ALDFAVGEPMK-NH2 [Cys5 amidated]	158000	234000	81300	6170	2690	4900	3470	EC50 [11]: 3470 nM
